Columns and labels:
PC-3Luc cells = experiment: Bioluminescent in vivo model of metastasis (Examples 1 and 2); design: species or system male SCID mice; details: Day 35; 2 mg/Kg twice weekly i.p. from Day 14
Description: Bioluminescent in vivo model of metastatsis—Bioluminescent imaging of PC-3^Luc was preformed as previously described through The University of Michigan Small Animal Imaging Resource facility (MSAIR) (Kalikin 2003). Briefly, PC-3Luc cells were introduced into male SCID mice (5-6 wks) by intracardiac injections. Mice were serially imaged weekly for 6 weeks using a CCD IVIS™ system using a 50 mm lens (Xenogen Corp, Alameda, Calif.) and the results were analyzed using […] software (Xenogen Corp.). Mice were separated into one of five groups; 1) PBS control, 2) anti-hIgG control human antibody, 3) anti-cVaM control mouse antibody, 4) anti-MCP1 (human), 5) anti-MCP1/JE (mouse). Treatment began at week 2 post-intracardiac injection and mice received 2 mg/Kg antibody twice weekly by intraperitoneal injection. Mice were injected with luciferin (40 mg/mL) intraperitoneally and ventral images were acquired 15 min post-injection under 1.75% isofluorane/air anesthesia. Total tumor burden of each animal was calculated using regions of interest (ROIs) that encompassed the entire animal. Animals were sacrificed after week 6 image and individual organs were harvested and immediately placed in formalin.

[1] = tested on: HDMVEC (human dermal microvacular endothelial cells); experiment: Endothelial tube formation assay in VCaP conditioned media; type: cell-based; details: 30 μg/mL in VCaP conditioned media; vs isotype control antibody
Description: In vitro tube formation was performed as previously described (Zhou et al., Int J Cancer 110 (2004) 800-806). Growth factor reduced […] was diluted with cold serum-free medium to a concentration of 10 mg/ml. 50 μl of the solution was added to each well of a 96-well plate and allowed to form a gel at 37° C. for 30 min. HDMVEC (human dermal microvacular endothelial cells) cells (150,000 cells/ml) in VCaP conditioned media (VCaP CM) were added to each well and incubated overnight at 37° C. in 5% CO2. […] Under these conditions, EC will form delicate networks of tubes that are detectable within 2-3 h and are fully developed after 8-12 h. After overnight incubation the wells were washed, and the […] and its endothelial tubes were fixed with 3% paraformaldehyde. Tube formation was quantified by counting the number of sprouts that developed per objective field (100×) and assays were performed in triplicate from 3 independent experiments.

VCaP cells = experiment: Immunoblot analysis of CCL2 stimulated VCaP cells; type: cell-based, human; details: CCL2 100 ng/mL for 24 hours
Description: Cells were lysed in RIPA buffer (50 mM Tris-HCl, pH 7.4, 1% NP-40, 150 mM NaCl, 1 mM EDTA, 1 mM PMSF, 1 mM Na3VO4, 1 mM NaF, 1 μM okadaic acid and 1 μg/mL aprotinin, leupeptin and pepstatin). Proteins were separated under reducing conditions by SDS-PAGE and transferred onto nitrocellulose membranes. The membranes were blocked with 5% milk in TBST (0.1% Tween in TBS) for 1 hour at room temperature, then were incubated overnight at 4° C. with primary antibodies. Membranes were washed 3 times prior to incubation with HRP-conjugated secondary antibodies (Cell Signaling) for 1 hour at room temperature. Protein expression was visualized by ECL chemiluminescence (Promega, Madison, Wis.) and quantitated using Image J software (NCl, Bethesda, Md.).

**Q.** For “CNTO888: human IgG1κ antibody that neutralizes human CCL2”, which “reduction in overall tumor burden compared to control antibody” value (PC-3Luc cells) is on record?
**A.** Its value is 46.52%.

**Q.** What about the “number of capillary-like tubes formed” value [1] of the same substance?
**A.** Its value is “significantly reduced”.

**Q.** And the “CCL2 induced Akt phosphorylation and p44/p42 MAPK phosphorylation” value (VCaP cells)?
**A.** Its value is “attenuated”.

From patent US20080118437A1, “Diagnosis and treatment O prostate cancer” (Regents of the University of Michigan, priority 2006, published 2008)
